ChEMBL document CHEMBL4308841, “Synthesis, in vitro antiproliferative activity, and kinase inhibitory effects of pyrazole-containing diarylureas and diarylamides” (Eur J Med Chem, 2018)

What was measured:
[1] = test system: 786-0; assay: Growth inhibition of human 786-0 cells incubated for 48 hrs by sulforhodamine B assay; type: functional, cell-based; conditions: 786-0, 48 h
[2] = test system: UACC-62; assay: Growth inhibition of human UACC62 cells incubated for 48 hrs by sulforhodamine B assay; type: functional, cell-based; conditions: UACC-62, 48 h
[3] = test system: NCI-H23; assay: Growth inhibition of human NCI-H23 cells assessed as cell growth at 1 uM incubated for 48 hrs by sulforhodamine B assay relative to control; type: functional; conditions: NCI-H23, 48 h, read-out: Activity
[4] = test system: UACC-62; assay: Growth inhibition of human UACC62 cells assessed as cell growth at 100 uM incubated for 48 hrs by sulforhodamine B assay relative to control; type: functional; conditions: UACC-62, 48 h, read-out: Activity
[5] = test system: NCI/ADR-RES; assay: Growth inhibition of human NCI/ADR-RES cells assessed as cell growth at 0.01 uM incubated for 48 hrs by sulforhodamine B assay relative to control; type: functional; conditions: read-out: Activity
[6] = test system: NCI-H226; assay: Growth inhibition of human NCI-H226 cells assessed as cell growth at 0.01 uM incubated for 48 hrs by sulforhodamine B assay relative to control; type: functional; conditions: NCI-H226, 48 h, read-out: Activity
[7] = test system: SF-539; assay: Growth inhibition of human SF539 cells assessed as cell growth at 100 uM incubated for 48 hrs by sulforhodamine B assay relative to control; type: functional; conditions: SF-539, 48 h, read-out: Activity
[8] = test system: T47D; assay: Growth inhibition of human T47D cells assessed as cell growth at 0.01 uM incubated for 48 hrs by sulforhodamine B assay relative to control; type: functional; conditions: read-out: Activity
[9] = test system: RXF 393; assay: Growth inhibition of human RXF393 cells incubated for 48 hrs by sulforhodamine B assay; type: functional, cell-based; conditions: RXF 393, 48 h
[10] = test system: MDA-MB-468; assay: Growth inhibition of human MDA-MB-468 cells incubated for 48 hrs by sulforhodamine B assay; type: functional, cell-based; conditions: MDA-MB-468, 48 h
[11] = test system: HCT-15; assay: Growth inhibition of human HCT15 cells assessed as cell growth at 0.1 uM incubated for 48 hrs by sulforhodamine B assay relative to control; type: functional; conditions: HCT-15, 48 h, read-out: Activity
[12] = test system: OVCAR-5; assay: Growth inhibition of human OVCAR5 cells assessed as cell growth at 100 uM incubated for 48 hrs by sulforhodamine B assay relative to control; type: functional; conditions: OVCAR-5, 48 h, read-out: Activity
[13] = test system: SK-MEL-5; assay: Growth inhibition of human SK-MEL-5 cells assessed as cell growth at 100 uM incubated for 48 hrs by sulforhodamine B assay relative to control; type: functional; conditions: SK-MEL-5, 48 h, read-out: Activity
[14] = test system: OVCAR-3; assay: Growth inhibition of human OVCAR3 cells assessed as cell growth at 0.01 uM incubated for 48 hrs by sulforhodamine B assay relative to control; type: functional; conditions: OVCAR-3, 48 h, read-out: Activity
[15] = test system: OVCAR-3; assay: Growth inhibition of human OVCAR3 cells incubated for 48 hrs by sulforhodamine B assay; type: functional, cell-based; conditions: OVCAR-3, 48 h
[16] = test system: SK-MEL-2; assay: Growth inhibition of human SK-MEL-2 cells assessed as cell growth at 1 uM incubated for 48 hrs by sulforhodamine B assay relative to control; type: functional; conditions: SK-MEL-2, 48 h, read-out: Activity
[17] = test system: Malme-3M; assay: Growth inhibition of human MALME-3M cells assessed as cell growth at 100 uM incubated for 48 hrs by sulforhodamine B assay relative to control; type: functional; conditions: read-out: Activity
[18] = test system: NCI/ADR-RES; assay: Growth inhibition of human NCI/ADR-RES cells assessed as cell growth at 1 uM incubated for 48 hrs by sulforhodamine B assay relative to control; type: functional; conditions: read-out: Activity
[19] = test system: NCI-H23; assay: Growth inhibition of human NCI-H23 cells assessed as cell growth at 100 uM incubated for 48 hrs by sulforhodamine B assay relative to control; type: functional; conditions: NCI-H23, 48 h, read-out: Activity
[20] = test system: SK-MEL-28; assay: Growth inhibition of human SK-MEL-28 cells assessed as cell growth at 100 uM incubated for 48 hrs by sulforhodamine B assay relative to control; type: functional; conditions: SK-MEL-28, 48 h, read-out: Activity
[21] = test system: SK-MEL-5; assay: Growth inhibition of human SK-MEL-5 cells assessed as cell growth at 0.1 uM incubated for 48 hrs by sulforhodamine B assay relative to control; type: functional; conditions: SK-MEL-5, 48 h, read-out: Activity
[22] = test system: SR; assay: Growth inhibition of human SR cells assessed as cell growth at 1 uM incubated for 48 hrs by sulforhodamine B assay relative to control; type: functional; conditions: read-out: Activity
[23] = test system: SK-MEL-28; assay: Growth inhibition of human SK-MEL-28 cells assessed as cell growth at 0.1 uM incubated for 48 hrs by sulforhodamine B assay relative to control; type: functional; conditions: SK-MEL-28, 48 h, read-out: Activity
[24] = test system: HCT-116; assay: Growth inhibition of human HCT116 cells assessed as cell growth at 0.1 uM incubated for 48 hrs by sulforhodamine B assay relative to control; type: functional; conditions: HCT-116, 48 h, read-out: Activity
[25] = test system: NCI-H522; assay: Growth inhibition of human NCI-H522 cells assessed as cell growth at 10 uM incubated for 48 hrs by sulforhodamine B assay relative to control; type: functional; conditions: NCI-H522, 48 h, read-out: Activity
[26] = test system: Malme-3M; assay: Growth inhibition of human MALME-3M cells assessed as cell growth at 1 uM incubated for 48 hrs by sulforhodamine B assay relative to control; type: functional; conditions: read-out: Activity
[27] = test system: M14; assay: Growth inhibition of human M14 cells assessed as cell growth at 0.1 uM incubated for 48 hrs by sulforhodamine B assay relative to control; type: functional; conditions: M14, 48 h, read-out: Activity
[28] = test system: SR; assay: Growth inhibition of human SR cells incubated for 48 hrs by sulforhodamine B assay; type: functional, cell-based
[29] = test system: HCT-116; assay: Growth inhibition of human HCT116 cells incubated for 48 hrs by sulforhodamine B assay; type: functional, cell-based; conditions: HCT-116, 48 h
[30] = read-out: LC50 (the source's name)
[31] = read-out: pLC50 (the source's name) (converted)

**Q.** Which GI50 ([1]; read-out: GI50) does the source give for `O=C(Nc1cccc(-n2cc(-c3ccncc3)c(-c3cc(O)cc(Cl)c3)n2)c1)c1ccc(N2CCOCC2)c(C(F)(F)F)c1` here?
**A.** 2.24 µM

**Q.** What about the CC50 [1, 30] of the same molecule?
**A.** 41 µM

**Q.** And the TGI ([1]; read-out: TGI)?
**A.** 10.1 µM

**Q.** What about the GI50 ([1]; read-out: pGI50 (converted)) of the same molecule?
**A.** 2.24 µM

**Q.** And the CC50 [1, 31]?
**A.** 40.7 µM

**Q.** And the TGI ([1]; read-out: pTGI (converted))?
**A.** 10 µM

**Q.** And the IC50 [2]?
**A.** 1.72 µM

**Q.** And the GI50 ([2]; read-out: GI50)?
**A.** 1.72 µM

**Q.** And the CC50 [2, 30]?
**A.** > 100 µM

**Q.** What about the TGI ([2]; read-out: TGI) of the same molecule?
**A.** 93.8 µM

**Q.** What about the GI50 ([2]; read-out: pGI50 (converted)) of the same molecule?
**A.** 1.74 µM

**Q.** What about the CC50 [2, 31] of the same molecule?
**A.** > 100 µM

**Q.** And the TGI ([2]; read-out: pTGI (converted))?
**A.** 9.33 µM

**Q.** And the growth at 1 µM [3]?
**A.** 92%

**Q.** And the growth at 100 µM [4]?
**A.** -31%

**Q.** And the growth at 0.01 µM [5]?
**A.** 101%

**Q.** What about the growth at 0.01 µM [6] of the same molecule?
**A.** 98%

**Q.** What about the growth at 100 µM [7] of the same molecule?
**A.** -50%

**Q.** And the growth at 0.01 µM [8]?
**A.** 97%

**Q.** What about the LC50 [9] of the same molecule?
**A.** > 100 µM

**Q.** And the GI50 ([9]; read-out: GI50)?
**A.** 0.303 µM

**Q.** What about the TGI ([9]; read-out: TGI) of the same molecule?
**A.** 19 µM

**Q.** What about the GI50 ([9]; read-out: pGI50 (converted)) of the same molecule?
**A.** 0.302 µM

**Q.** And the TGI ([9]; read-out: pTGI (converted))?
**A.** 1.91 µM

**Q.** What about the IC50 [10] of the same molecule?
**A.** 3.42 µM

**Q.** And the GI50 ([10]; read-out: GI50)?
**A.** 3.42 µM

**Q.** What about the CC50 [10, 30] of the same molecule?
**A.** > 100 µM

**Q.** What about the TGI ([10]; read-out: TGI) of the same molecule?
**A.** 43.3 µM

**Q.** And the GI50 ([10]; read-out: pGI50 (converted))?
**A.** 3.39 µM

**Q.** What about the CC50 [10, 31] of the same molecule?
**A.** > 100 µM

**Q.** What about the TGI ([10]; read-out: pTGI (converted)) of the same molecule?
**A.** 43.7 µM

**Q.** What about the growth at 0.1 µM [11] of the same molecule?
**A.** 94%

**Q.** What about the growth at 100 µM [12] of the same molecule?
**A.** -47%

**Q.** What about the growth at 100 µM [13] of the same molecule?
**A.** -72%

**Q.** What about the growth at 0.01 µM [14] of the same molecule?
**A.** 111%

**Q.** And the IC50 [15]?
**A.** 7.2 µM

**Q.** What about the GI50 ([15]; read-out: GI50) of the same molecule?
**A.** 7.2 µM

**Q.** And the CC50 [15, 30]?
**A.** > 100 µM

**Q.** And the TGI ([15]; read-out: TGI)?
**A.** > 100 µM

**Q.** What about the GI50 ([15]; read-out: pGI50 (converted)) of the same molecule?
**A.** 7.24 µM

**Q.** And the CC50 [15, 31]?
**A.** > 100 µM

**Q.** What about the TGI ([15]; read-out: pTGI (converted)) of the same molecule?
**A.** > 100 µM

**Q.** What about the growth at 1 µM [16] of the same molecule?
**A.** 77%

**Q.** What about the growth at 100 µM [17] of the same molecule?
**A.** -25%

**Q.** And the growth at 1 µM [18]?
**A.** 79%

**Q.** And the growth at 100 µM [19]?
**A.** -12%

**Q.** What about the growth at 100 µM [20] of the same molecule?
**A.** -22%

**Q.** And the growth at 0.1 µM [21]?
**A.** 91%

**Q.** What about the growth at 1 µM [22] of the same molecule?
**A.** 9%

**Q.** What about the growth at 0.1 µM [23] of the same molecule?
**A.** 94%

**Q.** And the growth at 0.1 µM [24]?
**A.** 102%

**Q.** What about the growth at 10 µM [25] of the same molecule?
**A.** 18.8%

**Q.** What about the growth at 1 µM [26] of the same molecule?
**A.** 52%

**Q.** And the growth at 0.1 µM [27]?
**A.** 91%

**Q.** What about the GI50 ([28]; read-out: GI50) of the same molecule?
**A.** 0.338 µM

**Q.** What about the CC50 [28, 30] of the same molecule?
**A.** > 100 µM

**Q.** And the TGI ([28]; read-out: TGI)?
**A.** 15.3 µM

**Q.** And the GI50 ([28]; read-out: pGI50 (converted))?
**A.** 0.339 µM

**Q.** And the CC50 [28, 31]?
**A.** > 100 µM

**Q.** What about the TGI ([28]; read-out: pTGI (converted)) of the same molecule?
**A.** 1.82 µM

**Q.** And the IC50 [29]?
**A.** 1.96 µM

**Q.** What about the GI50 ([29]; read-out: GI50) of the same molecule?
**A.** 1.96 µM

**Q.** And the CC50 [29, 30]?
**A.** > 100 µM

**Q.** What about the TGI ([29]; read-out: TGI) of the same molecule?
**A.** > 100 µM

**Q.** What about the GI50 ([29]; read-out: pGI50 (converted)) of the same molecule?
**A.** 1.95 µM

**Q.** And the CC50 [29, 31]?
**A.** > 100 µM

**Q.** And the TGI ([29]; read-out: pTGI (converted))?
**A.** > 100 µM
